From PubChem BioAssay AID602211 (Sanford-Burnham Center for Chemical Genomics, 2012) come the findings set out here.

Active and inactive are the calls of the source.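 The calls were made as follows: active = mean IC50 at or below 10 µM; inactive = the rest.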

For the test, the system named is H9c2 cardiomyocytes, H2O2 protection, ATPLite viability, 2 h. In words: protection of H9c2 cardiomyocytes from H2O2 death, dose response, cell-based, ATPLite luminescence, set 2 (AID 602211).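 Also: potency is for protection so actives keep ATP signal up against peroxide killing.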 On the technique in general: Cellular ATP, detected with luciferase, serves as a proxy for viable cell number.
As a reminder, the IC50 is the concentration that inhibits the measured activity by half. Consider `COc1cccc(-c2nn3c(-c4ccccn4)nnc3s2)c1`, for which the IC50 was 6.65 µM.

`CC(=O)Nc1ccc(C(=O)N/N=C/c2ccccc2OC(=O)c2ccc(Cl)cc2)cc1`: the IC50 is 13.6 µM (inactive).

Take `CCOC(=O)c1c2c3c(cccc3n(C)c1=O)C(=O)c1ccccc1-2`: the IC50 is 10.1 µM (inactive).

Turning to `CCN(C[C@H]1N[C@@](CC)(C(=O)OC)[C@H]2C(=O)N(Cc3ccccc3)C(=O)[C@@H]12)C(=O)c1ccc(C(C)(C)C)cc1`, the IC50 is > 79 µM (inactive).

For the molecule `NC(=O)c1nsc(C(=O)N(c2ccccc2F)C(C(=O)NCc2ccccc2)c2ccc(O)cc2)c1N` (stereo not given), the IC50 was 0.75 µM.

On to `CCOc1ccc(CCNC(=O)c2cc3c(C)nccc3[nH]c2=O)cc1OCC`, for which the IC50 was 42.9 µM (inactive).

In the case of `COc1cccc(/C=N/NC(=O)c2oc3nc(-c4ccccc4)cc(-c4ccco4)c3c2N)c1`, the IC50 is 5.87 µM.

Turning to `CC(C)(C)OC(=O)NCC12C=CC(O1)C1C(=O)N(Cc3ccccc3)C(=O)C12` (stereo not given), the IC50 is 2.91 µM.

`Cc1[nH]c2ccccc2c1/C=N/NC(=O)c1cc(-c2ccccc2)n[nH]1`: the IC50 is 2.89 µM.

Turning to `CCOC(=O)c1ccccc1OCc1cc(/C=N/NC(=O)c2cccnc2)ccc1OC`, the IC50 was > 79 µM (inactive).

As to `CCC(=O)N1CCN(c2ccccc2NC(=O)c2ccc(-c3cccc([N+](=O)[O-])c3)o2)CC1`, the half-maximal inhibitory concentration (IC50) was 1.99 µM.

As for `CC1CN(c2nn3c(=O)c4ccccc4nc3c3ccccc23)CC(C)O1` (stereo not given), the IC50 is 32.5 µM (inactive).

Regarding `N#C/C(=C\Nc1ccc2c(c1)OCCO2)c1nc2ccccc2[nH]1`, the concentration for half-maximal inhibition (IC50) was 9.06 µM.

With `CC1Nc2ncnc(N3CCN(c4ccccc4)CC3)c2N(Cc2ccc(Cl)cc2)C1=O` (stereo not given), the IC50 is 5.41 µM.

As for `C[C@H](CO)N1C[C@H](C)[C@@H](CN(C)S(=O)(=O)c2ccc(F)cc2)Oc2ccc(NC(=O)Nc3ccc4c(c3)OCO4)cc2C1=O`, the IC50 is 10.1 µM (inactive).

For `Cc1ccc2cc3c(NC(=O)c4cccnc4)nn(C)c3nc2c1`, the IC50 is 15.9 µM (inactive).

On to `COc1ccc(Cl)cc1NC(=O)CCS(=O)(=O)c1cc2c(cc1C)NC(=O)CO2`, for which the IC50 is 8.29 µM.

Consider `CCn1c(O)c(/C=N/N=C2CCCCC2)c2cc(C3=NNC(=O)CC3)ccc21`, for which the half-maximal inhibitory concentration (IC50) was 9.96 µM.

On to `COc1ccc(-c2cc(-c3nnc(COC(=O)C4CC4)o3)c3ccccc3n2)cc1OC`, for which the IC50 is 4.39 µM.

As to `COc1cc(OC)cc(C(=O)Nc2ccc(-c3nc4ccccc4o3)cc2)c1`, the IC50 was > 79 µM (inactive).

Take `CCC(=O)Oc1cccc(C(=O)Nc2ccc(-c3nnc(-c4ccco4)o3)cc2)c1`: the IC50 is > 79 µM (inactive).

With `O=C(CCCn1c(SCC(=O)c2ccc(O)c(O)c2)nc2ccccc2c1=O)NCC1CCCO1` (stereo not given), the IC50 is 21.7 µM (inactive).

Regarding `CCCNC(=O)c1c(N)n(-c2cccc(OC)c2)c2nc3ccccc3nc12`, the IC50 is > 79 µM (inactive).

Regarding `O=C(NC1CCCCC1)C(c1ccc2ncccc2c1)N(Cc1cccs1)C(=O)c1cccs1` (stereo not given), the IC50 was 1.96 µM.

Take `COc1cc(-c2cc(C(=O)Nc3cccc(C(C)=O)c3)c3ccccc3n2)cc(OC)c1OC`: the IC50 was 3.59 µM.

`Cc1cccc(NC(=O)c2nc[nH]c2C(=O)NCCCCNC(=O)c2[nH]cnc2C(=O)Nc2cccc(C)c2)c1`: the half-maximal inhibitory concentration (IC50) was 1.39 µM.

For `COc1cccc(Nc2nc(-c3sc(NC(=O)c4ccco4)nc3C)cs2)c1`, the IC50 was 7.15 µM.

`COc1ccc(/C=C/C(=O)c2ccccc2O)cc1CN1CCOCC1`: the concentration for half-maximal inhibition (IC50) is 7.14 µM.

Regarding `COc1cc(-c2cc(C(=O)NCc3ccco3)c3ccccc3n2)cc(OC)c1OC`, the IC50 was 13.5 µM (inactive).

In the case of `COc1cc(C(=O)Nc2ccc(NC(=O)c3ccco3)nc2)cc(OC)c1OC`, the IC50 is 25.7 µM (inactive).
